Measurements reported in patent US20220125837A1, “METHODS FOR CONTROLLED ELIMINATION OF THERAPEUTIC CELLS” (Bellicum Pharmaceuticals, Inc., priority 2014, published 2022).

Key:
Format in all cases: cell-based, human
[1] = test system: F-Casp9M.I.GFPhigh-transduced T cells; assay: Annexin V/7-AAD staining of iCasp9M GFPhigh T cells after CID
Experimental: CID (AP20187; ARIAD Pharmaceuticals) at indicated concentrations was added to transfected 293T cells or transduced CTLs. Adherent and nonadherent cells were harvested and washed with annexin binding buffer (BD Pharmingen, San Jose, Calif.). Cells were stained with annexin-V and 7-amino-actinomycin D (7-AAD) for 15 minutes according to the manufacturer's instructions (BD Pharmingen). Within 1 hour after staining, cells were analyzed by flow cytometry using CellQuest software (Becton Dickinson).
A representative example of 3 separate experiments is shown.
For clinical applications therefore, versions of the expression constructs with selectable markers that allow selection for high copy number, high levels of expression, or both high copy number and high levels of expression may be desirable. […] The dose response remained unchanged for at least 4 weeks after transduction.

iFas-transduced CTLs = assay: CID-induced elimination of GFP+ iFas-transduced EBV-CTLs; details: GFPhigh, 1:1 with nontransduced, 10 nM CID, day 7
From the text: Caspase-9 was selected as an inducible proapoptotic molecule for clinical use rather than previously presented iFas and iFADD, because Caspase-9 acts relatively late in apoptosis signaling and therefore is expected to be less susceptible to inhibition by apoptosis inhibitors. Thus, suicide function should be preserved not only in malignant, transformed T-cell lines that express antiapoptotic molecules, but also in subpopulations of normal T cells that express elevated antiapoptotic molecules as part of the process to ensure long-term preservation of memory cells. To further investigate the hypothesis, the function of iCasp9M and iFas was first compared in EBV-CTLs. To eliminate any potential vector based difference, inducible Fas also was expressed in the MSCV.IRES.GFP vector, like iCasp9. […]
Elimination of GFP^+ cells after administration of 10 nM CID was more rapid and more efficient in iCasp9M than in iFas-transduced CTLs (99.2%+/−0.14% of iCasp9M-transduced cells compared with 89.3%+/−4.9% of iFas-transduced cells at day 7 after CID; P<0.05). On the day of LCL stimulation, 10 nM CID was administered, and GFP was measured at the time points indicated to determine the response to CID. […]

Jurkat cells = assay: CID-induced apoptosis (annexin V) in transduced Jurkat cells; details: 10 nM CID for 8 hours
[2] = test system: gene-modified allodepleted cells (SFG.iCasp9.2A.CD19); assay: Induction of apoptosis with AP20187 in gene-modified allodepleted cells (annexin V/7-AAD)
Experimental: Suicide gene functionality was assessed by adding a small molecule synthetic homodimerizer, AP20187 (Ariad Pharmaceuticals; Cambridge, Mass.), at 10 nM final concentration the day following CD19 immunomagnetic selection. Cells were stained with annexin V and 7-amino-actinomycin (7-AAD)(BD Pharmingen) at 24 hours and analyzed by flow cytometry. Cells negative for both annexin V and 7-AAD were considered viable, cells that were annexin V positive were apoptotic, and cells that were both annexin V and 7-AAD positive were necrotic. The percentage killing induced by dimerization was corrected for baseline viability as follows: Percentage killing=100%−(% Viability in AP20187-treated cells÷% Viability in non-treated cells).
The day following immunomagnetic selection, 10 nM of the chemical inducer of dimerization, AP20187, was added to induce apoptosis, which appeared within 24 hours.

virus-specific T cells = assay: AP20187 on allostimulated gene-modified cells, pentamer analysis of virus-specific T cells; details: 10 nM; after 4 days reactivation with allogeneic PBMC
Experimental: In some experiments, cells also were cultured for 3 weeks post transduction and stimulated with 30G-irradiated allogeneic PBMC at a responder:stimulator ratio of 1:1. After 4 days of co-culture, a portion of cells was treated with 10 nM AP20187. Killing was measured by annexin V/7-AAD staining at 24 hours, and the effect of dimerizer on bystander virus-specific T cells was assessed by pentamer analysis on AP20187-treated and untreated cells.
An observation of note was that many virus-specific T cells were spared when dimerizer was used to deplete gene-modified cells that have been re-activated with allogeneic PBMC, rather than by non-specific mitogenic stimuli. […] Gene-modified allodepleted cells were maintained in culture for 3 weeks post-transduction to allow transgene down-modulation. Cells were stimulated with allogeneic PBMC for 4 days, following which a portion was treated with 10 nM AP20187.
The frequency of EBV-specific T cells and CMV-specific T cells were quantified by pentamer analysis before allostimulation, after allostimulation, and after treatment of allostimulated cells with dimerizer. The percentage of virus-specific T cells decreased after allostimulation. Following treatment with dimerizer, virus-specific T cells were partially and preferentially retained.

[3] = T cells selected for high expression, overnight 10 nM CID, mean
[4] = representative example of 3 experiments
[5] = large-scale CD19 selection (n=3)

With `CC[C@H](C(=O)N1CCCC[C@H]1C(=O)O[C@H](CCc1ccc(OC)c(OC)c1)c1cccc(OCC(=O)NCC(CNC(=O)COc2cccc([C@@H](CCc3ccc(OC)c(OC)c3)OC(=O)[C@@H]3CCCCN3C(=O)[C@@H](CC)c3cc(OC)c(OC)c(OC)c3)c2)CN(C)C)c1)c1cc(OC)c(OC)c(OC)c1` [AP20187] the “apoptotic (annexin-V+/7-AAD−) phenotype” value [1, 3] was 64%, the “necrotic (annexinV+/7-AAD+) phenotype” value [1, 3] was 30% and the “apoptotic phenotype (annexin V+, 7-AAD−)” value [1, 4] was 64%. For the same compound, the “necrotic phenotype (annexin V+, 7-AAD+)” value [1, 4] was 32%, the “Elimination of GFP+ cells” value (iFas-transduced CTLs) was 89.3%+/−4.9% and the “apoptosis (annexin-V staining)” value (Jurkat cells; iCasp9M-transduced Jurkat) was 57.2%+/−18.9%. For the same compound, the “apoptosis (annexin-V staining)” value (Jurkat cells; iFas-transduced Jurkat) was 56.4%+/−15.6%, the “Killing efficiency after correction for baseline viability” value ([2]; 10 nM, 24 hours) was “about 92.9%±3.8%” and the “AP20187-treated cells remaining viable” value ([2]; 10 nM, 24 hours, day following CD19 selection) was “about 5.5%±2.5%”. For the same compound, the “apoptosis after treatment with dimerizer” value ([2]; iCasp9 donor T cells) was greater than 90%, the “mean viability with AP20187” value [2, 5] was “about 3.9%” and the percentage killing [2, 5] was “about 95.4%”. The “mean viability with AP20187” value ([2]; small-scale selection (n=5)) was “about 6.6%”, the percentage killing ([2]; small-scale selection (n=5)) was “about 91.4%” and the “effect on virus-specific T cells” value (virus-specific T cells) was “spares (and thereby enriches) viral reactive subpopulations”.
